Some test systems named below: LXFL 529 NSCLC; DMS 114 small cell lung; M19-MEL melanoma; DLD-1 colon; DMS 273 small cell lung; SNB-78 CNS; HOP-18 NSCLC; KM20L2 colon; RXF-631 renal.
What all share (experiment): NCI tumour cell line growth inhibition, 48 h

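In this assay, cells in 96-well plates receive the compound at five concentrations for 48 hours. Endpoints are linearly interpolated between the surrounding concentrations. At the TGI there is no net growth.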

In the case of `Cc1csc(=S)n1OC(=O)NC1CCCCC1`, the TGI in the test on LXFL 529 NSCLC was greater than 24 µM; in the test with DMS 114 small cell lung, 44.7 µM; with M19-MEL melanoma it was greater than 56.6 µM; in the test with DLD-1 colon, greater than 100 µM; in the test on DMS 273 small cell lung it was greater than 79.9 µM; in the test on SNB-78 CNS, greater than 100 µM.
Take `COc1cc(Cn2c3ccccc3c3cc(C)c4c(c32)C=CC(C)(CCC=C(C)C)O4)cc2c1[nH]c1ccccc12` (stereo unspecified): the TGI in the test with LXFL 529 NSCLC, with DMS 114 small cell lung, with M19-MEL melanoma, with DLD-1 colon, in the test with DMS 273 small cell lung and in the test with HOP-18 NSCLC was greater than 100 µM in each case. The TGI with KM20L2 colon and in the test on SNB-78 CNS was greater than 100 µM in each case.
Regarding `CSc1ccc(C2OC(=O)c3ccccc32)c2ccccc12` (stereo unspecified), the TGI in the test on LXFL 529 NSCLC, in the test with DMS 114 small cell lung, in the test with M19-MEL melanoma, in the test with RXF-631 renal, with DLD-1 colon and with HOP-18 NSCLC was greater than 100 µM each time. The TGI with KM20L2 colon and with SNB-78 CNS was greater than 100 µM throughout.
Regarding `Cc1[nH]ccc2c1[nH]c1cc(=O)ccc12`, the TGI in the test with LXFL 529 NSCLC, with DMS 114 small cell lung, in the test on M19-MEL melanoma, with RXF-631 renal, in the test with DLD-1 colon and in the test with DMS 273 small cell lung was greater than 100 µM throughout. Besides, the TGI in the test with HOP-18 NSCLC, in the test on KM20L2 colon and with SNB-78 CNS was greater than 100 µM in each case.
As for `O=C(COc1ccc2c(=O)cc(-c3ccccc3)oc2c1)N1CCN(c2ccccc2)CC1`, the TGI in the test with LXFL 529 NSCLC, with DMS 114 small cell lung, with M19-MEL melanoma, in the test with HOP-18 NSCLC, in the test with KM20L2 colon and with SNB-78 CNS was greater than 100 µM throughout.
Regarding `O=C1C(Br)=CC2(C=C1Br)CCNC1=C2C(=O)c2ccccc2C1=O`, the TGI was 35.1 µM in the test on LXFL 529 NSCLC; 22.8 µM with DMS 114 small cell lung; 18.4 µM in the test on M19-MEL melanoma; 26.6 µM in the test on RXF-631 renal; 28.4 µM in the test with DLD-1 colon; greater than 100 µM in the test on HOP-18 NSCLC. Moreover, the TGI in the test with KM20L2 colon is 91.8 µM; in the test with SNB-78 CNS it was greater than 100 µM.
Consider `Nc1ccn(CCNCCn2cnc3nc(N)[nH]c(=O)c32)c(=O)n1`, for which the TGI in the test with LXFL 529 NSCLC, in the test with DMS 114 small cell lung, in the test with RXF-631 renal, with DLD-1 colon, in the test on HOP-18 NSCLC and with KM20L2 colon was greater than 100 µM each time. In addition, the TGI with SNB-78 CNS was greater than 100 µM.
Turning to `Cn1cnc(CCc2ccccc2)n1`, the TGI with LXFL 529 NSCLC, in the test on DMS 114 small cell lung, in the test with M19-MEL melanoma, in the test on DLD-1 colon, with DMS 273 small cell lung and with HOP-18 NSCLC was greater than 100 µM throughout. Also, the TGI with KM20L2 colon and with SNB-78 CNS was greater than 100 µM throughout.
In the case of `NC(=O)N=C(N(Cc1ccccc1)Cc1ccccc1)N(Cc1ccccc1)Cc1ccccc1`, the TGI in the test with LXFL 529 NSCLC, in the test on M19-MEL melanoma, with DLD-1 colon, in the test on DMS 273 small cell lung, in the test on KM20L2 colon and in the test with SNB-78 CNS was greater than 100 µM in each case.
In the case of `COc1ccc(C2=Nc3ccccc3NC(=O)C2)cc1`, the TGI was greater than 100 µM with LXFL 529 NSCLC; 59.7 µM with DMS 114 small cell lung; greater than 100 µM in the test with M19-MEL melanoma; greater than 100 µM in the test on RXF-631 renal; greater than 100 µM with DLD-1 colon; greater than 100 µM in the test with DMS 273 small cell lung. Further, the TGI in the test on HOP-18 NSCLC is greater than 100 µM; in the test with KM20L2 colon, greater than 100 µM; with SNB-78 CNS, 70 µM.
In the case of `O=C(CSc1nnc(-c2ccc(N=Cc3ccc(Cl)cc3)cc2)o1)Nc1ccc(Cl)cc1Cl`, the TGI was 96.9 µM with LXFL 529 NSCLC; 88.5 µM in the test on M19-MEL melanoma; 60.5 µM in the test with DLD-1 colon; 88.7 µM in the test on DMS 273 small cell lung; 39.8 µM with HOP-18 NSCLC; greater than 100 µM in the test with KM20L2 colon. In addition, in the test on SNB-78 CNS, the TGI was greater than 100 µM.
Regarding `COc1cc(OC)c2c(c1)C(=O)C(CC(C)O)=CC2=O` (stereo unspecified), the TGI in the test on LXFL 529 NSCLC turned out to be 26.1 µM; in the test on DMS 114 small cell lung, 9.21 µM; with M19-MEL melanoma, 11.4 µM; in the test with DLD-1 colon, 28.5 µM; in the test on DMS 273 small cell lung it was 37.6 µM; with HOP-18 NSCLC, 30.4 µM. The TGI in the test on KM20L2 colon worked out at 31.8 µM; with SNB-78 CNS it was 32 µM.
For `CCc1ccccc1NC(=O)C(=O)CC(=O)c1sc(Nc2ccccc2)nc1C`, the TGI with LXFL 529 NSCLC, with DMS 114 small cell lung, with M19-MEL melanoma, with RXF-631 renal, in the test with DLD-1 colon and with DMS 273 small cell lung was greater than 100 µM throughout. Further, the TGI in the test on HOP-18 NSCLC, in the test with KM20L2 colon and in the test with SNB-78 CNS was greater than 100 µM throughout.
On to `Nn1c(NNC(=O)C(=O)Nc2cc(Cl)c(Cl)cc2Cl)n[nH]c1=S`, for which the TGI in the test on LXFL 529 NSCLC, in the test on DMS 114 small cell lung, in the test with M19-MEL melanoma, in the test on DLD-1 colon, with HOP-18 NSCLC and in the test on KM20L2 colon was greater than 100 µM each time. In the test with SNB-78 CNS, this compound showed a TGI greater than 100 µM.
For `CC1SC2=NC3=C(c4ccccc4C3=O)C(c3ccc(F)cc3)N2C1=O` (stereo unspecified), the TGI with LXFL 529 NSCLC, in the test with DMS 114 small cell lung, with M19-MEL melanoma, in the test with DLD-1 colon, in the test with DMS 273 small cell lung and in the test with KM20L2 colon was greater than 100 µM each time.
Turning to `Cc1c(/C=N/NC(=O)c2cc(Br)cc(Br)c2O)c(=O)n(-c2ccccc2)n1C`, the TGI with LXFL 529 NSCLC is greater than 100 µM; in the test on DMS 114 small cell lung, 88.8 µM; in the test with M19-MEL melanoma, greater than 100 µM; with DLD-1 colon, greater than 100 µM; in the test with DMS 273 small cell lung, greater than 100 µM; in the test with KM20L2 colon, greater than 100 µM. In the test on SNB-78 CNS, this compound came in with a TGI greater than 100 µM.
For the compound `O=C1[C@H]2ON(c3ccccc3)C(c3ccccc3Cl)[C@H]2C(=O)N1c1ccc(Cc2ccc(N3C(=O)[C@@H]4ON(c5ccccc5)C(c5ccccc5Cl)[C@@H]4C3=O)cc2)cc1` (stereo partly specified), the TGI in the test with LXFL 529 NSCLC, with DMS 114 small cell lung, in the test with M19-MEL melanoma, with DLD-1 colon, in the test with DMS 273 small cell lung and with HOP-18 NSCLC was greater than 100 µM in each case. For the same compound, the TGI in the test with KM20L2 colon and in the test with SNB-78 CNS was greater than 100 µM throughout.
In the case of `C=CC/C=C/Cc1csc(C(C)(C)C(O)C/C=C/C(=C)CCNC(=O)OC)n1` (stereo unspecified), the TGI is greater than 100 µM with LXFL 529 NSCLC; 2.91 µM in the test with DMS 114 small cell lung; greater than 100 µM in the test with M19-MEL melanoma; greater than 100 µM in the test on DLD-1 colon; greater than 100 µM with DMS 273 small cell lung; greater than 100 µM in the test on KM20L2 colon.
`CC(=O)OCC1OC(OC2C(CSC3OC(COC(C)=O)C(OC(C)=O)C(OC(C)=O)C3OC(C)=O)OC(OC(C)=O)C(OC(C)=O)C2OC(C)=O)C(OC(C)=O)C(OC(C)=O)C1OC(C)=O` (stereo unspecified): the TGI with LXFL 529 NSCLC, in the test on DMS 114 small cell lung, with M19-MEL melanoma, in the test with DLD-1 colon, with DMS 273 small cell lung and in the test on KM20L2 colon was greater than 100 µM throughout. Besides, in the test on SNB-78 CNS, the TGI is greater than 100 µM.
For the compound `NC1C[C@H](n2cc(/C=C/Br)c(=O)[nH]c2=O)C[C@@H]1CO` (stereo partly specified), the TGI in the test with LXFL 529 NSCLC, with DMS 114 small cell lung, with M19-MEL melanoma, with DLD-1 colon, with DMS 273 small cell lung and with HOP-18 NSCLC was greater than 100 µM each time. For the same compound, in the test with KM20L2 colon, the TGI was greater than 100 µM.
For the compound `CC1(C)C(=NNC(=O)C[N+](C)(C)C)C(C)(C)C1=NNC(=O)C[N+](C)(C)C`, the TGI in the test on LXFL 529 NSCLC, in the test on DMS 114 small cell lung, with M19-MEL melanoma, in the test with RXF-631 renal, in the test with DLD-1 colon and in the test on DMS 273 small cell lung was greater than 100 µM each time. The TGI with HOP-18 NSCLC, in the test with KM20L2 colon and in the test on SNB-78 CNS was greater than 100 µM throughout.
